{"source": "patent US10912774B2", "about": "“Pyrimidine FGFR4 inhibitors” (priority 2013, dated 2021)", "tested_on": "HEP3B tumor xenografts", "type": "in vivo", "key": {"[1]": {"conditions": "Hep3B xenograft, 60 mg/kg orally twice daily"}}, "data": [{"smiles": "C=CC(=O)Nc1cc(N2CCN(CC)CC2)ccc1Nc1cc(N(C)C(=O)Nc2c(Cl)c(OC)cc(OC)c2Cl)ncn1", "note": "[Compound 108, N-(2-(6-(3-(2,6-Dichloro-3,5-dimethoxyphenyl)-1-methylureido)pyrimidin-4-ylamino)-5-(4-ethylpiperazin-1-yl)-phenyl)acrylamide]", "values": [{"measurement": "efficacy compared with BGJ398", "setting": "Hep3B xenograft, 25, 37.5 or 50 mg/kg i.p. twice daily", "result": "more efficacious than BGJ398 at tolerable dosage levels"}]}, {"smiles": "CCN1CCN(c2ccc(Nc3cc(N(C)C(=O)Nc4c(Cl)c(OC)cc(OC)c4Cl)ncn3)cc2)CC1", "note": "[BGJ398]", "values": [{"measurement": "efficacy compared with compound 108", "setting": "[1]", "result": "efficacy comparable to compound 108"}, {"measurement": "tolerability (health of animals)", "setting": "[1]", "result": "had to be terminated on Day 11 due to poor health of animals"}]}]}
